# Data reported in the Kinase Knowledgebase extract (Sharma et al. 2016).
# Molecular target: EGFR (UniProt P00533)
# Sequence (P00533 whole entry, looked up): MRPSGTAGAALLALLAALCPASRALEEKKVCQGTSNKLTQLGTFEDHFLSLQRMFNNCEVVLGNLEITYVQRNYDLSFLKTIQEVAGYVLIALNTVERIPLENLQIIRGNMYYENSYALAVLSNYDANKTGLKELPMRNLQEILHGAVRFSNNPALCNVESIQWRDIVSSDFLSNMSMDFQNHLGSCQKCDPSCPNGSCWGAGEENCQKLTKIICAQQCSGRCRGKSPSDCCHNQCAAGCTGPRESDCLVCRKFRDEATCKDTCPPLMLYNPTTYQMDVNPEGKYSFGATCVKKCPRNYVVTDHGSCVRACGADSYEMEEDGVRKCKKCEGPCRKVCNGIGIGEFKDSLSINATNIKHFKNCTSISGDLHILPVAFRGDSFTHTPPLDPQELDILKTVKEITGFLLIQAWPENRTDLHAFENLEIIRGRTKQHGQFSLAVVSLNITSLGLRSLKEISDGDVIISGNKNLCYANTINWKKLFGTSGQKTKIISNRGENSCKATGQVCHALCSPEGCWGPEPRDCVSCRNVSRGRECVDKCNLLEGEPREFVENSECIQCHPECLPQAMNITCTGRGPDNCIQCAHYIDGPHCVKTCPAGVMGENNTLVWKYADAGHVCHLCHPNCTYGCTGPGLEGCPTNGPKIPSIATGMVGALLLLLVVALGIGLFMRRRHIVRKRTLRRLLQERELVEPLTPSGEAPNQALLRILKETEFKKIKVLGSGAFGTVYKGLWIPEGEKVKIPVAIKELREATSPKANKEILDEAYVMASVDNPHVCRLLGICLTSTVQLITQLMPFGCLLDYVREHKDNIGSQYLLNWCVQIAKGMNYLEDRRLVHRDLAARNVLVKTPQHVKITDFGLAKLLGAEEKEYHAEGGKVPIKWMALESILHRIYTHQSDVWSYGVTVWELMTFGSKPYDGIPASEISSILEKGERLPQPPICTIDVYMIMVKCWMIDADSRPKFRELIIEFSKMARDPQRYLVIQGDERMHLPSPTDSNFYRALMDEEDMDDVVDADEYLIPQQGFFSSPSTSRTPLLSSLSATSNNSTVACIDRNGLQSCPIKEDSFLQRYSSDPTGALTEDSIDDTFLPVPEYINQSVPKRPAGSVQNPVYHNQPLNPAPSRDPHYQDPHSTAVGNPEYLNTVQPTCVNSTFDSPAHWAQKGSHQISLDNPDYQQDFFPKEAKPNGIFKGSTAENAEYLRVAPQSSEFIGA
row,IC50 [µM],SMILES
1,< 0.1,Clc1cc(Nc2ncnc3nn4ccccc4c23)ccc1OCc1ccccc1
2,> 10,O=C(Nc1ccc(Br)cc1)Nc1ncnc2nn3ccccc3c12
3,> 10,O=C(Nc1ccc(C(F)(F)F)cc1)Nc1ncnc2nn3ccccc3c12
4,> 10,O=C(Nc1cccc(C(F)(F)F)c1)Nc1ncnc2nn3ccccc3c12

# The remaining lines, values behind:
row,SMILES,IC50 [µM]
1,c1ccc2c(CNNc3ncnc4nn5ccccc5c34)c[nH]c2c1,1 to 10
2,N#Cc1cccc(NC(=O)Nc2ncnc3nn4ccccc4c23)c1,> 10
3,O=C(Nc1cccc([N+](=O)[O-])c1)Nc1ncnc2nn3ccccc3c12,> 10
4,O=C(Nc1ccc(F)cc1)Nc1ncnc2nn3ccccc3c12,> 10
5,c1ccc(Cc2nc3ccc(Nc4ncnc5nn6ccccc6c45)cc3[nH]2)cc1,1 to 10
6,Nc1ncnc2nn3ccccc3c12,> 10
